Laboratory results: US20180258180A1, “COMBINATION THERAPY INVOLVING ANTIBODIES AGAINST CLAUDIN 18.2 FOR TREATMENT OF CANCER” (Ganymed Pharmaceuticals AG, priority 2012, published 2018)

Experiments:
[1] = tested on: HEK293~CLDN18.2 transfectants; experiment: Early treatment of HEK293~CLDN18.2 tumor xenografts; type: in vivo, nude mice; conditions: isotype control, twice per week for 6 weeks
Source text: Moreover, advanced tumor treatment experiments were initiated up to 9 days after tumor cell inoculation when tumors had reached volumes of about 60-120 mm^3.
Nude mice were subcutaneously inoculated with 1×10^7 HEK293˜CLDN18.2 transfectants. Treatment of 10 mice per group started 3 days after tumor inoculation. […] Not only time to death was prolonged, but 4 of 10 mice survived the entire observation period of 210 days.

NUGC-4 xenografts = experiment: Biodistribution of Dyelight 680-labeled antibodies in NUGC-4 xenografted nude mice; conditions: negative control, NUGC-4 negative for CD20
[2] = molecular target: Claudin 18 splice variant 2 (CLDN18.2), human (human)
CLS103 = tested on: CLS103
Method: (§1) Furthermore, human stomach cancer cells (NUGC-4-luciferase) and murine stomach cancer cells (CLS103-calcein stained) were pretreated with or w/o 5 μM ZA for 2 days. Human Vγ9Vδ2 T cells were MACS purified (day 14) and co-cultured with the cancer cells for 24 h. Cytotoxicity of Vγ9V52 T cells towards non-treated and ZA-treated target cells was determined by measuring remaining luciferase activity or calcein fluorescence; cf. FIG. 11b. Target cells (NUGC-4 and CLS103) were pretreated with or w/o 5 μM ZA for 2 days and subsequently incubated for 4 h with mitomycin c ([…]) to stop proliferation. MACS purified human 14d old resting Vγ9V62 T cells and ^3H-thymidine were added to the target cells and co-cultures were incubated for 48 h at 37° C. Proliferation was determined by measuring ^3H thymidine incorporation in the DNA using a MicroBeta scintillation counter. Proliferation of target cells not treated with ZA and w/o Vγ9Vδ2 T cells was set to 100%; cf. FIG. 11c.

NUGC-4 = type: cell-based, human
Method: as §1

Vγ9Vδ2 T cells = experiment: Enrichment of Vγ9Vδ2 T cells co-cultured with monocytes ± ZA; type: cell-based, human; conditions: co-culture 14 days, ±1 μM ZA
Method: The enrichment of Vγ9Vδ2 T cells in the co-cultures after 14 days was determined by multicolor FACS, whereas the expansion of the culture was considered in the calculation. The enrichment factor of Vγ9Vδ2 T cells cultured with monocytes in a 1:4 ratio was set to 100% for each experiment. […] This effect was clearly ZA-dependent; cf. FIG. 11a.

PBMCs = experiment: Expansion of PBMC cultures with ZA/IL-2; type: cell-based, human; conditions: 14 days, 300 U/ml IL-2
Method: PBMCs were harvested from healthy human donors and cultures were treated with a single dose of ZA. […] FIG. 8a. […] FIG. 8b. Increase in cell numbers was determined by counting living cells on day 6, 8, 11 and 14.

claudin18.2 = claudin18.2 expression in pretreated KatoIII cells; type: cell-based, human; conditions: KatoIII pretreated for 3 days; Irinotecan 1000 ng/ml, Docetaxel 5 ng/ml, Cisplatin 2000 ng/ml
KatoIII cells [3] = experiment: IMAB362 induced ADCC / viability of pretreated KatoIII cells (luciferase); type: cell-based, human; conditions: KatoIII pretreated for 3 days; for level of viable cells compared to medium cultivated target cells: Irinotecan 1000 ng/ml, Docetaxel 5 ng/ml, Cisplatin 2000 ng/ml
Method: Peripheral blood mononuclear cells (PBMCs) including NK cells, monocytes, mononuclear cells or other effector cells from healthy human donors were purified by Ficoll Hypaque density centrifugation. Washed effector cells were seeded in X-Vivo medium. KatoII cells which express CLDN18.2 endogenously and are of gastric origin were used as target cells in this setting. Target cells stably expressed luciferase, lucifer yellow, which is oxidized by viable cells only.

KatoIII cells [4] = experiment: Cell cycle analysis of KatoIII cells treated with cytostatic compounds; type: cell-based, human; conditions: for cell cycle phase in which cells are predominantly arrested/enriched: KatoIII cells, 96 hours; for cell cycle arrest phase: KatoIII cells pretreated for 4 days
Method: (§2) KatoIII cells, a human gastric tumor cell line, was cultivated in RPMI 1640 medium (Invitrogen) containing 20% FCS (Perbio) and 2 mM Glutamax (Invitrogen) at 37° C. and 5% CO2, with or without cytostatic compounds. Epirubicin (Pfizer) was tested at a concentration of 10 or 100 ng/ml, 5-FU (Neofluor from NeoCorp AG) was tested at a concentration of 10 or 100 ng/ml, and oxaliplatin (Hospira) was tested at a concentration of 50 or 500 ng/ml. A combination of all 3 compounds (EOF; epirubicin 10 ng/ml, oxaliplatin 500 ng/ml, 5-FU 10 ng/ml) was also used. 8×10^5 KatoIII cells were cultivated for 96 hours without medium change or for 72 hours followed by 24 hours cultivation in standard medium to release cells from cell cycle arrest in a 6-well tissue culture plate at 37° C., 5% CO2. Cells were harvested with EDTA/trypsin, washed and analysed.
Cell cycle stages were determined based on measurement of cellular DNA content. This allows one to discriminate between cells in the G1-, S- or G2-phase of the cell cycle. In the S-phase DNA duplication occurs whereas in the G2-phase cells grow and prepare for mitosis. Cell cycle analysis was done using the CycleTEST PLUS DNA Reagent Kit from BD Biosciences following the manufacturer's protocol. Flow cytometry acquisition and analysis were performed by using BD FACS CantoII (BD Biosciences) and FlowJo (Tree Star) software.
(§3) KatoIII cells were pretreated for 4 days with Irinotecan or Docetaxel and analysed for CLDN18.2 expression and cell cycle arrest.

CLDN18.2 = experiment: Extracellular detection of CLDN18.2 on treated KatoIII cells by flow cytometry; type: cell-based, human; conditions: 96 hours, FIG. 1
Method: as §2
As secondary reagent goat-anti-huIgG-APC from Dianova was used.

KatoIII cells [5] = experiment: Cell growth of KatoIII cells pretreated with Irinotecan or Docetaxel; type: cell-based, human; conditions: KatoIII cells pretreated for 4 days
Source text: as §3

infliximab: isotype control antibody [reference compound]
time within which all mice died [1]: 70 to 80 days

rituximab: Dyelight 680-labeled negative control antibody (NUGC-4 negative for CD20) [reference compound]
signal of labeled antibody in NUGC-4 engrafted mice (NUGC-4 xenografts): No signal is detected

IMAB362 (antibody)
EC50 (read off the curve), ADCC on KatoIII cells pretreated 3 days with Irinotecan (Irino imab362) [2]: 1 µg/mL | EC50 (read off the curve), ADCC on medium-cultivated KatoIII cells (Med imab362) [2]: 2 µg/mL

O=P(O)(O)C(O)(Cn1ccnc1)P(=O)(O)O [ZA, [1-hydroxy-2-(1H-imidazol-1-yl)ethane-1,1-diyl]bis(phosphonic acid)]
activation of Vγ9Vδ2 T cells (cytotoxicity and proliferation) by ZA-pulsed cancer cells (CLS103): failed to elicit these effects | activation of Vγ9Vδ2 T cell cytotoxicity by ZA-pulsed cancer cells (NUGC-4): 5-10 fold | activation of Vγ9Vδ2 T cell proliferation by ZA-pulsed cancer cells (NUGC-4; 5 μM ZA for 2 days, co-culture 48 h, 3H-thymidine): 1.4-1.8 fold | enrichment of Vγ9Vδ2 T cells with increase of monocytes, ZA-dependent (Vγ9Vδ2 T cells): more than 10 fold | expansion of cells in medium without ZA compared to with ZA (lower) (PBMCs): about 2 fold

N.N.[Cl][Pt][Cl] [Cisplatin, cis-diamminedichloroplatinum(II)]
claudin18.2 expression compared to medium cultivated cells (claudin18.2): increased | potency of IMAB362 to induce ADCC after pretreatment of target cells (KatoIII cells [3]): augmented | level of viable cells compared to medium cultivated target cells (KatoIII cells [3]): lower level of viable cells

O=c1[nH]cc(F)c(=O)[nH]1 [5-FU, 5-fluoro-1H-pyrimidine-2,4-dione]
cell cycle phase in which cells are predominantly arrested/enriched (KatoIII cells [4]): S-phase | CLDN18.2-expression (CLDN18.2): stabilize

COc1cccc2c1C(=O)c1c(O)c3c(c(O)c1C2=O)C[C@@](O)(C(=O)CO)C[C@@H]3O[C@H]1C[C@H](N)[C@@H](O)[C@H](C)O1 [Epirubicin]
cell cycle phase in which cells are predominantly arrested/enriched (KatoIII cells [4]): G2-phase | CLDN18.2-expression (CLDN18.2): stabilize

CCc1c2c(nc3ccc(OC(=O)N4CCC(N5CCCCC5)CC4)cc13)-c1cc3c(c(=O)n1C2)COC(=O)[C@]3(O)CC [Irinotecan, (S)-4,11-diethyl-3,4,12,14-tetrahydro-4-hydroxy-3,14-dioxo1H-pyrano[3′,4′:6,7]-indolizino[1,2-b]quinolin-9-yl-[1,4′bipiperidine]-1′-carboxylate]
claudin18.2 expression compared to medium cultivated cells (claudin18.2): increased | cell cycle arrest phase (KatoIII cells [4]): S/G2-phase | cell growth (KatoIII cells [5]): dose dependent inhibition | potency of IMAB362 to induce ADCC after pretreatment of target cells (KatoIII cells [3]): augmented | level of viable cells compared to medium cultivated target cells (KatoIII cells [3]): lower level of viable cells

O=C1[O][Pt]2([NH][C@@H]3CCCC[C@H]3[NH]2)[O]C1=O [Oxaliplatin, [(1R,2R)-cyclohexane-1,2-diamine](ethanedioato-O,O′)platinum(II)]
cell cycle phase in which cells are predominantly arrested/enriched (KatoIII cells [4]): G1- and G2-phases

CC(=O)O[C@@]12CO[C@@H]1C[C@H](O)[C@@]1(C)C(=O)[C@H](O)C3=C(C)[C@@H](OC(=O)[C@H](O)[C@@H](NC(=O)OC(C)(C)C)c4ccccc4)C[C@@](O)([C@@H](OC(=O)c4ccccc4)[C@H]21)C3(C)C [Docetaxel, docetaxel]
claudin18.2 expression compared to medium cultivated cells (claudin18.2): increased | cell cycle arrest phase (KatoIII cells [4]): G2-phase | cell growth (KatoIII cells [5]): dose dependent inhibition | potency of IMAB362 to induce ADCC after pretreatment of target cells (KatoIII cells [3]): augmented | level of viable cells compared to medium cultivated target cells (KatoIII cells [3]): lower level of viable cells
